The values below come from patent US8178506B2, “Oligomeric compounds and compositions for use in modulation of small non-coding RNAs” (Regulus Therapeutics Inc., priority 2003, dated 2012).

For one series, the system named is IL-12 mRNA. Briefly: IL-12 mRNA in LPS-activated primary murine macrophages. In kind it is cell-based, mouse. Conditions: for IL-12 mRNA expression, % UTC: LPS, average of 3 treatments; for IL-12 mRNA expression, −IFN % UTC: 300 nM oligomeric compound and LPS, no IFN-gamma pretreatment, single experiment; for IL-12 mRNA expression, −IFN % UTC / IL-12 mRNA expression, +IFN % UTC: normalized to LPS-treated cells without oligomeric compound; for IL-12 mRNA expression, +IFN % UTC: 300 nM oligomeric compound, stimulation with IFN-gamma and LPS, average of 2 experiments.

A further series has as its system IGFBP-1. As to the kind of experiment: IGFBP-1 mRNA expression in HepG2 cells. In kind it is cell-based, human. Conditions: for IGFBP-1 (% UTC): HepG2, 100 nM oligomeric compound; for IGFBP1 mRNA: HepG2 cells, four hours, UTC = 100; for IGFBP1 mRNA expression: Experiment 2, insulin treated: HepG2 cells transfected with oligomeric compound, 1 nM insulin for four hours, UTC + 1 nM insulin = 100.

The subject of a further series is follistatin. As to the kind of experiment: Follistatin mRNA expression in HepG2 cells. In kind it is cell-based, human. Conditions: for Follistatin (% UTC): HepG2, 100 nM oligomeric compound; for Follistatin mRNA: HepG2 cells, four hours, UTC = 100; for Follistatin mRNA expression: Experiment 2, insulin treated: HepG2 cells transfected with oligomeric compound, 1 nM insulin for four hours, UTC + 1 nM insulin = 100.

Setting [1] is: Experiment 1, basal (no insulin).
The mark [2] stands for this setting: Experiment 2, 1 nM insulin treated.

In the oligonucleotide strings, read from the 5' end, every base follows the letter of its sugar. An asterisk marks phosphorothioate; unmarked linkages are phosphodiester. Other units and linkages are bracketed, terminal groups are in braces. A string of capitals states the bases alone. e = 2'-O-(2-methoxyethyl) (MOE); [5mC] = 5-methylcytosine

Regarding “327941 (antisense eA*eA*e[5mC]*e[5mC]*e[5mC]*eA*e[5mC]*e[5mC]*eG*eA*e[5mC]*eA*eG*e[5mC]*eA*eA*eT*eG*eA*eA*eT*eG*eT*eT) [compound 327941]”, the “IL-12 mRNA expression, % UTC” value in the series on IL-12 mRNA (75 nM, +IFN) is reported as 4 % UTC; in the series with IL-12 mRNA (75 nM, −IFN) it was 49 % UTC; in the series with IL-12 mRNA (150 nM, +IFN), 2 % UTC; with IL-12 mRNA (150 nM, −IFN) it was 45 % UTC; in the series on IL-12 mRNA (300 nM, +IFN) it was 3 % UTC; in the series with IL-12 mRNA (300 nM, −IFN), 34 % UTC. Further, the “IL-12 mRNA expression, % UTC” value with IL-12 mRNA (600 nM, +IFN) was found to be 3 % UTC; in the series with IL-12 mRNA (600 nM, −IFN) it was 41 % UTC. Also, in the series with IL-12 mRNA, the “IL-12 mRNA expression, −IFN % UTC” value is 89 % UTC. Also, the “IL-12 mRNA expression, +IFN % UTC” value with IL-12 mRNA is given as 34 % UTC. In addition, the “IGFBP-1 (% UTC)” value is recorded as 83 % UTC in the series on IGFBP-1 (setting [1]) and 80 % UTC in the series with IGFBP-1 (setting [2]). The “Follistatin (% UTC)” value in the series with follistatin (setting [1]) is listed as 80 % UTC; in the series with follistatin (setting [2]), 68 % UTC.

Regarding “327913 (antisense eA*eA*e[5mC]*e[5mC]*eG*eA*eT*eT*eT*e[5mC]*eA*eA*eA*eT*eG*eG*eT*eG*e[5mC]*eT*eA*eG) [compound 327913]”, in the series with IL-12 mRNA, the “IL-12 mRNA expression, −IFN % UTC” value came out at 276 % UTC. In addition, the “IL-12 mRNA expression, +IFN % UTC” value in the series with IL-12 mRNA worked out at 73 % UTC. Moreover, the “IGFBP-1 (% UTC)” value in the series on IGFBP-1 (setting [1]) was found to be 123 % UTC; in the series on IGFBP-1 (setting [2]), 147 % UTC. Further, the results for the “Follistatin (% UTC)” value in the series on follistatin (setting [1]) and in the series with follistatin (setting [2]) were 115 % UTC and 123 % UTC, respectively.

With “327901 (antisense eT*eG*eA*eG*e[5mC]*eT*eA*e[5mC]*eA*eG*eT*eG*e[5mC]*eT*eT*e[5mC]*eA*eT*e[5mC]*eT*e[5mC]*eA) [compound 327901]”, the “IL-12 mRNA expression, −IFN % UTC” value in the series on IL-12 mRNA was 225 % UTC. Moreover, in the series on IL-12 mRNA, the “IL-12 mRNA expression, +IFN % UTC” value came to 9 % UTC. For the same substance, the “IGFBP-1 (% UTC)” value in the series with IGFBP-1 (setting [1]) is reported as 133 % UTC; in the series on IGFBP-1 (setting [2]), 135 % UTC. For the same substance, the “Follistatin (% UTC)” value came to 93 % UTC in the series on follistatin (setting [1]) and 135 % UTC with follistatin (setting [2]).

For “327899 (antisense e[5mC]*eA*eG*eT*eG*eA*eA*eT*eT*e[5mC]*eT*eA*e[5mC]*e[5mC]*eA*eG*eT*eG*e[5mC]*e[5mC]*eA*eT*eA) [compound 327899]”, in the series with IL-12 mRNA, the “IL-12 mRNA expression, −IFN % UTC” value was 164 % UTC and the “IL-12 mRNA expression, +IFN % UTC” value turned out to be 7 % UTC. The “IGFBP1 mRNA” value in the series with IGFBP-1 (setting [1]) was found to be 105. Besides, the “Follistatin mRNA” value in the series with follistatin (setting [1]) is on record as 66.

Turning to “327889 (antisense eG*eT*eG*eG*eT*eA*eA*eT*e[5mC]*e[5mC]*e[5mC]*eT*eG*eG*e[5mC]*eA*eA*eT*eG*eT*eG*eA*eT) [compound 327889]”, the “IL-12 mRNA expression, −IFN % UTC” value in the series with IL-12 mRNA came to 153 % UTC. The “IL-12 mRNA expression, +IFN % UTC” value with IL-12 mRNA was found to be 10 % UTC. Moreover, the “IGFBP-1 (% UTC)” value came to 56 % UTC with IGFBP-1 (setting [1]) and 73 % UTC with IGFBP-1 (setting [2]). Also, the “Follistatin (% UTC)” value in the series on follistatin (setting [1]) amounted to 56 % UTC; in the series with follistatin (setting [2]) it was 72 % UTC.

For the substance “327890 (antisense eA*eG*e[5mC]*eA*e[5mC]*eA*eA*eA*e[5mC]*eT*eA*e[5mC]*eT*eA*e[5mC]*e[5mC]*eT*e[5mC]*eA) [compound 327890]”, the “IL-12 mRNA expression, −IFN % UTC” value in the series with IL-12 mRNA came to 183 % UTC. The “IL-12 mRNA expression, +IFN % UTC” value with IL-12 mRNA is reported as 94 % UTC. Moreover, the “IGFBP-1 (% UTC)” value in the series on IGFBP-1 (setting [1]) is on record as 99 % UTC; in the series on IGFBP-1 (setting [2]) it was 88 % UTC. Besides, the results for the “Follistatin (% UTC)” value with follistatin (setting [1]) and in the series on follistatin (setting [2]) were 78 % UTC and 115 % UTC, respectively.

“327887 (antisense eG*e[5mC]*eG*eA*e[5mC]*e[5mC]*eA*eT*eG*eG*e[5mC]*eT*eG*eT*eA*eG*eA*e[5mC]*eT*eG*eT*eT*eA) [compound 327887]”: in the series on IL-12 mRNA, the “IL-12 mRNA expression, −IFN % UTC” value turned out to be 287 % UTC and the “IL-12 mRNA expression, +IFN % UTC” value is recorded as 33 % UTC. Besides, the “IGFBP1 mRNA” value in the series on IGFBP-1 (setting [1]) was determined as 119. For the same substance, in the series with follistatin (setting [1]), the “Follistatin mRNA” value stood at 113.

In the case of “327893 (antisense eA*eA*e[5mC]*e[5mC]*eA*e[5mC]*eA*e[5mC]*eA*eA*e[5mC]*e[5mC]*eT*eA*e[5mC]*eT*eA*e[5mC]*e[5mC]*eT*e[5mC]*eA) [compound 327893]”, in the series on IL-12 mRNA, the “IL-12 mRNA expression, −IFN % UTC” value was 117 % UTC and the “IL-12 mRNA expression, +IFN % UTC” value is 52 % UTC. Further, the “IGFBP1 mRNA” value in the series with IGFBP-1 (setting [1]) amounted to 107. In addition, in the series on follistatin (setting [1]), the “Follistatin mRNA” value amounted to 93.

Regarding “327920 (antisense eG*eA*eG*eA*e[5mC]*e[5mC]*e[5mC]*eA*eG*eT*eA*eG*e[5mC]*e[5mC]*eA*eG*eA*eT*eG*eT*eA*eG*e[5mC]*eT) [compound 327920]”, in the series with IL-12 mRNA, the “IL-12 mRNA expression, −IFN % UTC” value is reported as 171 % UTC and the “IL-12 mRNA expression, +IFN % UTC” value is 68 % UTC. The “IGFBP1 mRNA expression” value in the series on IGFBP-1 came to 267. For the same substance, the “IGFBP1 mRNA” value in the series with IGFBP-1 (setting [1]) is 165. In addition, the “Follistatin mRNA expression” value in the series on follistatin is on record as 102. The “Follistatin mRNA” value with follistatin (setting [1]) is on record as 99.

For the substance “327903 (antisense eA*eA*e[5mC]*eT*eA*eT*eA*e[5mC]*eA*eA*e[5mC]*e[5mC]*eT*eA*e[5mC]*eT*eA*e[5mC]*e[5mC]*eT*e[5mC]*eA) [compound 327903]”, in the series on IL-12 mRNA, the “IL-12 mRNA expression, −IFN % UTC” value is 200 % UTC. The “IL-12 mRNA expression, +IFN % UTC” value in the series with IL-12 mRNA is given as 23 % UTC. In addition, the “IGFBP-1 (% UTC)” value in the series on IGFBP-1 (setting [1]) worked out at 71 % UTC; with IGFBP-1 (setting [2]) it was 81 % UTC. Moreover, the “Follistatin (% UTC)” value in the series on follistatin (setting [1]) was 60 % UTC; in the series on follistatin (setting [2]), 89 % UTC.

For “341800 (antisense AAGCCCAAAAGGAGAAUUCUUUG; all 2'-MOE, all phosphorothioate, methylation of C and T or U not given here) [compound 341800]”, in the series on IL-12 mRNA, the “IL-12 mRNA expression, −IFN % UTC” value came out at 180 % UTC and the “IL-12 mRNA expression, +IFN % UTC” value came out at 100 % UTC. Besides, in the series with IGFBP-1 (setting [1]), the “IGFBP1 mRNA” value turned out to be 114. In addition, in the series on follistatin (setting [1]), the “Follistatin mRNA” value amounted to 105.

In the case of “327923 (antisense eG*eA*eA*eA*eG*eA*eG*eA*e[5mC]*e[5mC]*eG*eG*eT*eT*e[5mC]*eA*e[5mC]*eT*eG*eT*eG*eA) [compound 327923]”, in the series on IL-12 mRNA, the “IL-12 mRNA expression, −IFN % UTC” value turned out to be 269 % UTC and the “IL-12 mRNA expression, +IFN % UTC” value turned out to be 134 % UTC. The “IGFBP1 mRNA expression” value in the series with IGFBP-1 is listed as 119. The “IGFBP1 mRNA” value with IGFBP-1 (setting [1]) is on record as 116. In addition, the “Follistatin mRNA expression” value in the series with follistatin came to 106. Also, in the series on follistatin (setting [1]), the “Follistatin mRNA” value is on record as 86.

In the case of “327876 (antisense eA*eA*e[5mC]*eA*e[5mC]*eT*eG*eA*eT*eT*eT*e[5mC]*eA*eA*eA*eT*eG*eG*eT*eG*e[5mC]*eT*eA) [compound 327876]”, the “IL-12 mRNA expression, −IFN % UTC” value in the series on IL-12 mRNA was 194 % UTC. The “IL-12 mRNA expression, +IFN % UTC” value in the series on IL-12 mRNA is recorded as 9 % UTC. Besides, the “IGFBP-1 (% UTC)” value is 93 % UTC in the series on IGFBP-1 (setting [1]) and 118 % UTC in the series with IGFBP-1 (setting [2]). Also, the “Follistatin (% UTC)” value is listed as 104 % UTC in the series on follistatin (setting [1]) and 138 % UTC in the series with follistatin (setting [2]).

With “327919 (antisense eG*eA*eA*eA*e[5mC]*e[5mC]*e[5mC]*eA*eG*e[5mC]*eA*eG*eA*e[5mC]*eA*eA*eT*eG*eT*eA*eG*e[5mC]*eT) [compound 327919]”, the “IL-12 mRNA expression, −IFN % UTC” value in the series on IL-12 mRNA was found to be 179 % UTC. Besides, the “IL-12 mRNA expression, +IFN % UTC” value with IL-12 mRNA was 37 % UTC. Also, the “IGFBP-1 (% UTC)” value in the series on IGFBP-1 (setting [1]) turned out to be 96 % UTC; with IGFBP-1 (setting [2]), 154 % UTC. Further, the “Follistatin (% UTC)” value is listed as 74 % UTC in the series on follistatin (setting [1]) and 178 % UTC in the series with follistatin (setting [2]).
